Measured values published in patent US20230295234A1, “ANTIMICROBIAL PEPTIDOMIMETICS” (SPEXIS AG, priority 2020, published 2023).
Bridge positions count the residues as written; N and C are the ends. Square brackets hold non-standard residues; d marks the D form. Peptide text beside a SMILES is read from it. Pro(4R-NH2) = N[C@H]1CN[C@H](C(=O)O)C1; Gly(N-2-aminoethyl) = NCCNCC(=O)O; Pen = CC(C)(S)[C@H](N)C(=O)O; dDab = NCC[C@@H](N)C(=O)O; Nle = CCCC[C@H](N)C(=O)O; Dab = NCC[C@H](N)C(=O)O

Experiments:
[1] = test system: Escherichia coli ATCC 25922; details: ATCC 25922
Method: (§1) Lyophilized peptides were weighed on a Microbalance (Mettler MT5) and dissolved in sterile water to a final concentration of 1 mg/mL. Stock solutions were kept at +4° C., light protected.
(§2) Colonies of the microorganisms were diluted in saline (0.85%, NaCl) and adjusted using a McFarland reader (bioMérieux SA, Marcy-l'Etoile, France) to 0.5 McFarland standard. Subsequently, the bacterial suspension was diluted in Mueller-Hinton II (MHII, cation adjusted) broth to give approximately 5×10^5 colony forming units (CFU/mL).
(§3) 10^6 colony forming units (CFU)/mL. Aliquots (90 μl) of inoculate were added to 10 μl of water+P-80 (Polysorbate 80, 0.002% final concentration) containing the peptide in serial two-fold dilutions at 10 fold final concentration. The following microorganisms were used to determine antibiotic selectivity of the peptides: Escherichia coli ATCC 25922, Escherichia coli MCR-1 Af 45 and Klebsiella pneumoniae SSI3010.

[2] = test system: Escherichia coli MCR-1 Af 45; details: MCR-1 Af 45
Method: as §1, §2, §3

[3] = test system: Klebsiella pneumoniae SSI3010; details: SSI3010
Method: as §1, §2, §3

[4] = test system: human red blood cells (hRBC); assay: Hemolysis of human red blood cells; type: cell-based; details: red cells of human, 1 h
Method: Lyophilized peptides were weighed on a Microbalance (Mettler MT5) and dissolved in sterile water to a final concentration of 1 mg/mL. Stock solutions were kept at +4° C., light protected. The peptides were tested for their hemolytic activity against human red blood cells (hRBC). Fresh hRBC were washed three times with phosphate buffered saline (PBS) and centrifuged for 5 min at 3000×g. Compounds (200 μg/mL) were incubated with 20% hRBC (v/v) for 1 h at 37° C. and shaking at 300 rpm. […] The samples were centrifuged, the supernatants were 8-fold diluted in PBS buffer and the optical densities (OD) were measured at 540 nm. […] Percent hemolysis was calculated as follows: (OD540peptide/OD540H2O)×100%.

Structure (SMILES)	Escherichia coli ATCC 25922 MIC [1]	Escherichia coli MCR-1 Af 45 MIC [2]	Klebsiella pneumoniae SSI3010 MIC [3]	Hemolysis at 0.2 g/L [4]
CCCC[C@H](NC(=O)[C@H](CCCNC(=N)N)NC(=O)[C@H](CCN)NC(=O)[C@@H]1CSSC(C)(C)[C@H](NC(=O)[C@H](Cc2ccc(O)cc2)NC(=O)[C@@H](NC(=O)[C@@H](NC(=O)[C@@H]2C[C@@H](N)CN2C(=O)[C@@H](NC(=O)[C@@H]2C[C@@H](N)CN2)C(C)C)[C@@H](C)CC)[C@@H](C)CC)C(=O)N[C@@H](CC(N)=O)C(=O)N[C@@H](CCCNC(=N)N)C(=O)N[C@@H](CCN)C(=O)N[C@@H]([C@@H](C)O)C(=O)N[C@H](CCN)C(=O)N[C@@H](CCCCN)C(=O)N1)C(=O)O [Example 8, Pro((4R)NH2)-Val-Pro((4R)NH2)-Ile-Ile-Tyr-Pen-Asn-Arg-Dab-Thr-^DDab-Lys-Cys-Dab-Arg-Nle] (H-[Pro(4R-NH2)]V[Pro(4R-NH2)]IIY[Pen]NR[Dab]T[dDab]KC[Dab]R[Nle]-OH; disulfide 7-14)	0.0625 µg/mL	0.0625 µg/mL	0.125 µg/mL	0%
CCCC[C@H](NC(=O)[C@H](CCCNC(=N)N)NC(=O)[C@H](CCN)NC(=O)[C@@H]1CSSC(C)(C)[C@H](NC(=O)[C@H](Cc2ccc(O)cc2)NC(=O)[C@@H](NC(=O)[C@@H](NC(=O)[C@@H]2C[C@@H](N)CN2C(=O)[C@@H](NC(=O)[C@@H]2C[C@@H](N)CN2)C(C)C)[C@@H](C)CC)[C@@H](C)O)C(=O)N[C@@H](CC(N)=O)C(=O)N[C@@H](CCCNC(=N)N)C(=O)N[C@@H](CCN)C(=O)N[C@@H]([C@@H](C)O)C(=O)N[C@H](CCN)C(=O)N[C@@H](CCCCN)C(=O)N1)C(=O)O [Example 9, Pro((4R)NH2)-Val-Pro((4R)NH2)-Ile-Thr-Tyr-Pen-Asn-Arg-Dab-Thr-^DDab-Lys-Cys-Dab-Arg-Nle] (H-[Pro(4R-NH2)]V[Pro(4R-NH2)]ITY[Pen]NR[Dab]T[dDab]KC[Dab]R[Nle]-OH; disulfide 7-14)	0.0625 µg/mL	0.0625 µg/mL	0.125 µg/mL	0%
CCCC[C@H](NC(=O)[C@H](CCCNC(=N)N)NC(=O)[C@H](CCN)NC(=O)[C@@H]1CSSC(C)(C)[C@H](NC(=O)[C@H](Cc2ccc(O)cc2)NC(=O)[C@@H](NC(=O)[C@@H](NC(=O)CN(CCN)C(=O)[C@@H](NC(=O)[C@@H]2C[C@@H](N)CN2)C(C)C)[C@@H](C)CC)[C@@H](C)CC)C(=O)N[C@@H](CC(N)=O)C(=O)N[C@@H](CCCNC(=N)N)C(=O)N[C@@H](CCN)C(=O)N[C@@H]([C@@H](C)O)C(=O)N[C@H](CCN)C(=O)N[C@@H](CCCCN)C(=O)N1)C(=O)O [Example 10, Pro((4R)NH2)-Val-Ndab-Ile-Ile-Tyr-Pen-Asn-Arg-Dab-Thr-^DDab-Lys-Cys-Dab-Arg-Nle] (H-[Pro(4R-NH2)]V[Gly(N-2-aminoethyl)]IIY[Pen]NR[Dab]T[dDab]KC[Dab]R[Nle]-OH; disulfide 7-14)	0.125 µg/mL	0.125 µg/mL	0.25 µg/mL	0%
CCCC[C@H](NC(=O)[C@H](CCCNC(=N)N)NC(=O)[C@H](CCN)NC(=O)[C@@H]1CSSC(C)(C)[C@H](NC(=O)[C@H](Cc2ccc(O)cc2)NC(=O)[C@@H](NC(=O)[C@@H](NC(=O)[C@@H]2C[C@@H](N)CN2C(=O)[C@@H](NC(=O)CNCCN)C(C)C)[C@@H](C)CC)[C@@H](C)CC)C(=O)N[C@@H](CC(N)=O)C(=O)N[C@@H](CCCNC(=N)N)C(=O)N[C@@H](CCN)C(=O)N[C@@H]([C@@H](C)O)C(=O)N[C@H](CCN)C(=O)N[C@@H](CCCCN)C(=O)N1)C(=O)O [Example 11, Ndab-Val-Pro((4R)NH2)-Ile-Ile-Tyr-Pen-Asn-Arg-Dab-Thr-^DDab-Lys-Cys-Dab-Arg-Nle] (H-[Gly(N-2-aminoethyl)]V[Pro(4R-NH2)]IIY[Pen]NR[Dab]T[dDab]KC[Dab]R[Nle]-OH; disulfide 7-14)	0.0625 µg/mL	≤0.03125 µg/mL	0.125 µg/mL	0%
